According to US20140045860A1, “SMALL MOLECULE INHIBITORS FOR TREATING PARASITIC INFECTIONS” (NEW YORK UNIVERSITY, priority 2011, published 2014):

system: T. cruzi; experiment: T. cruzi inhibition assay (beta-galactosidase T. cruzi co-cultured with NIH/3T3 host cells); assay type: cell-based; details: Trypanosoma cruzi, NIH3T3; Table 2
Description: A high-throughput screen of small molecules was performed in duplicate in the recombinant Tulahuen strain of T. cruzi stably expressing a beta-galactosidase reporter gene. Trypomastogote-stage parasites were co-cultured with mouse fibroblast NIH/3T3 host cells, (Buckner F S, Verlinde C L, La Flamme A C, Van Voorhis W C. Efficient technique for screening drugs for activity against Trypanosoma cruzi using parasites expressing beta-galactosidase. Antimicrob Agents Chemother. 1996; 40(11): 2592-2597). Signal was normalized to neutral (DMSO) controls, and a 75% inhibition cutoff was used to define a hit. Compounds initially designated as hits were retested in dose in the primary assay to confirm their inhibitory activity. In parallel, compounds were tested in toxicity assays against NIH/3T3 host cells to determine if these compounds were cytotoxic to mammalian cells and thus, false positives. Compounds that reduced the viability of NIH/3T3 cells were excluded as viable hits. A subset of hits were then tested in a similar infection assay with the Tulahuen strain of T. cruzi infecting murine L-6 cells and the intracellular T. cruzi immunofluorescence assay described below.
1. T. cruzi Inhibition Assay
98% DMEM, Phenol Red, 2% FBS, and 1% PSG were mixed and filtered through a 0.2 microns membrane. The cells were kept at 4° C., then warmed up to 37° C. in a water bath before use.
Gal-Screen. Using a Gal-Screen base kit, Buffer B (Catalog no. T2361) was mixed with 1:25 substrate (Catalog no. T2359).
NIH/3T3 cells were cultivated in DMEM supplemented with 10% FBS and 1% PSG in T175 in 50 mL total of medium.
Parasite Culture: T. cruzi β-gal (Tc): T. cruzi β-gal were cultivated in DMEM supplemented with 2% FBS and 1% PSG in T175 flasks with vented caps in 50 mL total of medium.
2. Growth Inhibition Assay for HTS (384-Well Plates)
The medium was warmed up with 2% FBS/DMEM. The parasites were harvested in 50-mL tubes, and spun for 10 minutes at 2200 rpm. Approximately 15 mL of media was aspirated, and the samples were incubated for 3-5 h. The NIH/3T3 cells were trypsinized (refer to cell culture protocol). When the NIH/3T3 cells were detached, the cells were harvested in DMEM, 2% FBS, and 1% PSG, then counted using the Nexcelom cellometer. The cells were diluted to 166,667 cells/mL, then added to a flask and plated 5,000 cells/30 μL per well using a standard cassette multiwall drob Combi. The cells were incubated for 3 h, then T. cruzi cells were counted, diluted to 0.166 million cells/mL, and transferred to a 2-liter flask. Then, […] compounds/DMSO were pinned to each well with NIH/3T3 cells. Next, 30 μL/well of parasites (5000 T. cruzi) were added with a standard cassette multiwall drop Combi on slow speed, and incubated for 4 days (or a minimum of 90 h). Gal-Screen was prepared, 30 μL per well were dispensed in a 384-well plate, incubated for 60 minutes, and the luminescence was read using Envision (Perkin-Elmer) at 0.1 sec/well.

| SMILES | IC50 |
| --- | --- |
| C[C@@H]1CN([C@@H](C)CO)C(=O)c2cccc(NC(=O)c3ccncc3)c2O[C@H]1CN(C)Cc1ccc(Oc2ccccc2)cc1 [Compound 21] | < 0.0026 µM |
| C[C@@H](CO)N1CC[C@H](CN(C)Cc2cccc(Cl)c2)Oc2c(NC(=O)c3ccncc3)cccc2C1=O [Compound 22] | < 0.0026 µM |
| C[C@@H]1CN([C@@H](C)CO)C(=O)c2cccc(NC(=O)c3ccncc3)c2O[C@H]1CN(C)C [Compound 23] | > 10 µM |
| C[C@H](CO)N1C[C@H](C)[C@@H](CN(C)Cc2ccc(Oc3ccccc3)cc2)Oc2c(NC(=O)c3ccncc3)cccc2C1=O [Compound 24] | < 0.0026 µM |
| C[C@@H]1CN([C@@H](C)CO)C(=O)c2cc(Br)cnc2O[C@H]1CN(C)Cc1ccc2c(c1)OCO2 [Compound 25] | > 10 µM |
| C[C@@H]1CN([C@@H](C)CO)C(=O)c2cccc(NC(=O)c3ccncc3)c2O[C@H]1CN(C)Cc1ccccc1Cl [Compound 26] | 0.0039 µM |
| C[C@@H]1CN([C@H](C)CO)C(=O)c2cccc(NC(=O)c3ccncc3)c2O[C@H]1CN(C)Cc1ccc2c(c1)OCO2 [Compound 27] | 0.00148 µM |
| C[C@@H]1CN([C@H](C)CO)C(=O)c2cccc(NC(=O)c3ccncc3)c2O[C@@H]1CN(C)Cc1ccc(Oc2ccccc2)cc1 [Compound 28] | 0.0426 µM |
| C[C@H]1CN([C@@H](C)CO)C(=O)c2cccc(NC(=O)c3ccncc3)c2O[C@H]1CN(C)Cc1ccc(Oc2ccccc2)cc1 [Compound 29] | < 0.0026 µM |
| C[C@@H]1CN([C@@H](C)CO)C(=O)c2cccc(NC(=O)c3ccncc3)c2O[C@H]1CN(C)Cc1ccc(Cl)cc1 [Compound 30] | < 0.0026 µM |
| C[C@@H]1CN([C@@H](C)CO)C(=O)c2cc(-c3ccncc3)cnc2O[C@H]1CN(C)Cc1ccc(Oc2ccccc2)cc1 [Compound 31] | 1.28 µM |
| C[C@@H]1CN([C@@H](C)CO)C(=O)c2cccc(NC(=O)c3ccncc3)c2O[C@@H]1CN(C)Cc1ccc(Oc2ccccc2)cc1 [Compound 32] | 0.00434 µM |
| C[C@@H]1CN([C@@H](C)CO)C(=O)c2cc(-c3cncnc3)cnc2O[C@H]1CN(C)Cc1ccc(Oc2ccccc2)cc1 [Compound 33] | > 10 µM |
| CC(C)N1C[C@@H](C)[C@H](CN(C)Cc2ccc(Oc3ccccc3)cc2)Oc2c(NC(=O)c3ccncc3)cccc2C1=O [Compound 34] | < 0.0026 µM |
| Cc1cc(C(=O)Nc2cccc3c2O[C@@H](CN(C)Cc2ccc(Oc4ccccc4)cc2)[C@H](C)CN([C@@H](C)CO)C3=O)n(C)n1 [Compound 35] | > 10 µM |
